The source of these data is US9149475B2, “Protein kinase C inhibitors and uses thereof” (Rigel Pharmaceuticals, Inc., priority 2009, dated 2015).

The first experiment concerns Human primary T cells. The experiment can be described thus: IL-2 ELISA, human primary T cell, anti-CD3+CD28+ (whole cell assay). It counts as cell-based. To be noted: Homo sapiens, T-cell, 24 h, human primary T cells stimulated with anti-CD3 + anti-CD28, 24 hours. The method in brief: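 IL-2 secreted over 24 h at 37° C was quantified by ELISA after plate-bound αCD3 (1 μg/ml) and αCD28 (5 μg/ml) stimulation, or PMA (0.5 ng/ml) with ionomycin (0.1 μM) as counter-screen. Cells were IL-2-starved primary human T cells, expanded from volunteer PBMC and exposed to compound for 1 hr beforehand.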
For orientation: In an ELISA, binding on a coated surface is turned into a signal by an enzyme label.
Take `CC(C)Oc1ncc(Nc2ncc(C#N)c(NC3CC(C)(C)NC(C)(C)C3)n2)cc1-c1nnnn1C(C)C` [Compound I-136, 2-(6-isopropoxy-5-(1-isopropyl-1H-tetrazol-5-yl)pyridin-3-ylamino)-4-(2,2,6,6-tetramethylpiperidin-4-ylamino)pyrimidine-5-carbonitrile]: the IC50 is > 1000 nM.
Still for that read-out and setting: for `CC(C)N1CCC(Oc2ccc(Nc3ncc(F)c(NC4CC(C)(C)NC(C)(C)C4)n3)cc2C(F)(F)F)CC1` [III-102, 5-fluoro-N2-(4-(1-isopropylpiperidin-4-yloxy)-3-(trifluoromethyl)phenyl)-N4-(2,2,6,6-tetramethylpiperidin-4-yl)pyrimidine-2,4-diamine] the value was 250 to 500 nM; for `CN1C(C)(C)CC(Nc2nc(Nc3cccc(-n4cccn4)c3)ncc2F)CC1(C)C` [Compound I-22, N2-(3-(1H-pyrazol-1-yl)phenyl)-5-fluoro-N4-(1,2,2,6,6-pentamethylpiperidin-4-yl)pyrimidine-2,4-diamine], 500 to 1000 nM.
Regarding `CN1C(C)(C)CC(Nc2nc(Nc3cc(C4CC4)cc(-n4cnnn4)c3)ncc2F)CC1(C)C` [III-117, N^2-(3-cyclopropyl-5-(1H-tetrazol-1-yl)phenyl)-5-fluoro-N^4(1,2,2,6,6-pentamethylpiperidin-4-yl)pyrimidine-2,4-diamine], the IC50 was < 250 nM.
For the molecule `Cn1nnnc1-c1cc(F)cc(Nc2ncc(F)c(NC3CC(C)(C)NC(C)(C)C3)n2)c1` [III-138, 5-fluoro-N2-(3-fluoro-5-(1-methyl-1H-tetrazol-5-yl)phenyl)-N4-(2,2,6,6-tetramethylpiperidin-4-yl)pyrimidine-2,4-diamine], the half-maximal inhibitory concentration (IC50) lay within 500 to 1000 nM.
With `CN1C(C)(C)CC(Nc2nc(Nc3cccc(-c4nn[nH]n4)c3)ncc2F)CC1(C)C` [III-68, N2-(3-(2H-tetrazol-5-yl)phenyl)-5-fluoro-N4-(1,2,2,6,6-pentamethylpiperidin-4-yl)pyrimidine-2,4-diamine], the IC50 is > 1000 nM.
Same read-out and setting: for `CC1(C)CC(Nc2nc(Nc3ccc(OCCn4ccnn4)c(OC(F)F)c3)ncc2F)CC(C)(C)N1` [Compound I-24, N2-(4-(2-(1H-1,2,3-triazol-1-yl)ethoxy)-3-(difluoromethoxy)phenyl)-5-fluoro-N4-(2,2,6,6-tetramethylpiperidin-4-yl)pyrimidine-2,4-diamine] the value was 500 to 1000 nM.
As for `Cn1nnnc1-c1cc(Nc2ncc(F)c(NC3CC(C)(C)NC(C)(C)C3)n2)ccc1Cl` [III-130, N2-(4-chloro-3-(1-methyl-1H-tetrazol-5-yl)phenyl)-5-fluoro-N4-(2,2,6,6-tetramethylpiperidin-4-yl)pyrimidine-2,4-diamine], the IC50 is < 250 nM.
On to `CN1C(C)(C)CC(Nc2nc(Nc3ccc(-c4cccnc4)c(OC(F)F)c3)ncc2F)CC1(C)C` [Compound I-64, N2-(3-(difluoromethoxy)-4-(pyridin-3-yl)phenyl)-5-fluoro-N4-(1,2,2,6,6-pentamethylpiperidin-4-yl)pyrimidine-2,4-diamine], for which the IC50 is < 250 nM.
For `CC1(C)CC(Nc2nc(Nc3ccc4c(c3)OC(C)(C)C(=O)N4CCF)ncc2F)CC(C)(C)N1` [II-9, N2-[2,2-Dimethyl-4-(2-fluoroethyl)-1,4-benzoxazin-3-one-7-yl]-5-fluoro-N4-(2,2,6,6-tetramethylpiperidin-4-yl)-2,4-pyrimidinediamine], the IC50 was < 250 nM.
As to `CC1(C)CC(Nc2nc(Nc3ccc(OC(C)(C)CN4CCOCC4)c(OC(F)F)c3)ncc2F)CC(C)(C)N1` [Compound I-122, N2-(4-(2-methyl-1-morpholinopropan-2-yloxy)-3-(difluoromethoxy)phenyl)-5-fluoro-N4-(2,2,6,6-tetramethylpiperidin-4-yl)pyrimidine-2,4-diamine], the IC50 was > 1000 nM.
In the case of `CCOc1ccc(Nc2ncc(F)c(NC3CC(C)(C)N(C)C(C)(C)C3)n2)cc1OC(F)F` [Compound I-109, N2-(3-(difluoromethoxy)-4-ethoxyphenyl)-5-fluoro-N4-(1,2,2,6,6-pentamethylpiperidin-4-yl)pyrimidine-2,4-diamine], the IC50 was < 250 nM.
For `CCOc1ccc(Nc2ncc(F)c(NC3CC(C)(C)N(C)C(C)(C)C3)n2)cc1-n1c(C)ccc1C` [Compound I-13, N2-(4-ethoxy-3-(2,5-dimethyl-1H-pyrrol-1-yl)phenyl)-5-fluoro-N4-(1,2,2,6,6-pentamethylpiperidin-4-yl)pyrimidine-2,4-diamine], the IC50 was > 1000 nM.
On to `CC(C)Oc1ncc(Nc2ncc(C(N)=O)c(NC3CC(C)(C)NC(C)(C)C3)n2)cc1-c1nnnn1C(C)C` [Compound I-134, 2-(6-isopropoxy-5-(1-isopropyl-1H-tetrazol-5-yl)pyridin-3-ylamino)-4-(2,2,6,6-tetramethylpiperidin-4-ylamino)pyrimidine-5-carboxamide], for which the IC50 was > 1000 nM.
Consider `COCCn1nnnc1-c1cc(Nc2ncc(F)c(NC3CC(C)(C)N(C)C(C)(C)C3)n2)ccc1F` [III-128, 5-fluoro-N2-(4-fluoro-3-(1-(2-methoxyethyl)-1H-tetrazol-5-yl)phenyl)-N4-(1,2,2,6,6-pentamethylpiperidin-4-yl)pyrimidine-2,4-diamine], for which the half-maximal inhibitory concentration (IC50) was 250 to 500 nM.
As for `CC(C)N1CCC(Oc2ccc(Nc3ncc(F)c(NC4CC(C)(C)NC(C)(C)C4)n3)cc2OC(F)F)C(F)(F)C1` (centres unmarked) [III-108, N2-(4-(3,3-difluoro-1-isopropylpiperidin-4-yloxy)-3-(difluoromethoxy)phenyl)-5-fluoro-N4-(2,2,6,6-tetramethylpiperidin-4-yl)pyrimidine-2,4-diamine], the concentration for half-maximal inhibition (IC50) fell in the range of 500 to 1000 nM.
With `CC1(C)CC(Nc2nc(Nc3cccc(-n4cccn4)c3)ncc2F)CC(C)(C)N1` [Compound I-23, N2-(3-(1H-pyrazol-1-yl)phenyl)-5-fluoro-N4-(2,2,6,6-tetramethylpiperidin-4-yl)pyrimidine-2,4-diamine], the IC50 was > 1000 nM.
Turning to `CC(C)N1CCCC(Oc2ccc(Nc3ncc(F)c(NC4CC(C)(C)N(C)C(C)(C)C4)n3)cc2OC(F)F)CC1` (centres unmarked) [III-41, N2-(3-(difluoromethoxy)-4-(1-isopropylazepan-4-yloxy)phenyl)-5-fluoro-N4-(1,2,2,6,6-pentamethylpiperidin-4-yl)pyrimidine-2,4-diamine], the half-inhibitory concentration (IC50) was < 250 nM.
Consider `CC(C)Oc1ncc(Nc2ncc(F)c(NC3CC(C)(C)NC(C)(C)C3)n2)cc1-c1nnnn1C(C)C` [Compound I-132, 5-fluoro-N2-(6-isopropoxy-5-(1-isopropyl-1H-tetrazol-5-yl)pyridin-3-yl)-N4-(2,2,6,6-tetramethylpiperidin-4-yl)pyrimidine-2,4-diamine], for which the IC50 fell in the range of 500 to 1000 nM.
Regarding `CC1(C)CC(Nc2nc(Nc3cccc(-c4nn[nH]n4)c3)ncc2F)CC(C)(C)N1` [III-69, N2-(3-(2H-tetrazol-5-yl)phenyl)-5-fluoro-N4-(2,2,6,6-tetramethylpiperidin-4-yl)pyrimidine-2,4-diamine], the IC50 is > 1000 nM.
On to `CC1(C)CC(Nc2nc(Nc3cc(F)cc(OCCn4cncn4)c3)ncc2F)CC(C)(C)N1` [Compound I-39, N2-(3-(2-(1H-1,2,4-triazol-1-yl)ethoxy)-5-fluorophenyl)-5-fluoro-N4-(2,2,6,6-tetramethylpiperidin-4-yl)pyrimidine-2,4-diamine], for which the IC50 was > 1000 nM.
The same measure, in the same setting: the value for `CC1(C)CC(Nc2nc(Nc3cc(OC(F)F)cc(C(F)(F)F)c3)ncc2F)CC(C)(C)N1` [Compound I-106, N2-(3-(difluoromethoxy)-5-(trifluoromethyl)phenyl)-5-fluoro-N4-(2,2,6,6-tetramethylpiperidin-4-yl)pyrimidine-2,4-diamine] was 500 to 1000 nM.
For the molecule `CC(C)N1CC[C@@H](Oc2ccc(Nc3ncc(F)c(NC4CC(C)(C)N(C)C(C)(C)C4)n3)cc2OC(F)F)C1` [Compound I-147, N2-(4-((R)-1-isopropylpyrrolidin-3-yloxy)-3-(difluoromethoxy)phenyl)-5-fluoro-N4-(1,2,2,6,6-pentamethylpiperidin-4-yl)pyrimidine-2,4-diamine], the concentration for half-maximal inhibition (IC50) is < 250 nM.

Staying with this experiment, now noted: human primary T cells stimulated with anti-CD3 + anti-CD28, 24 hours.
In the case of `CC(C)n1nnnc1-c1cccc(Nc2ncc(C#N)c(NC3CC(C)(C)N(C)C(C)(C)C3)n2)c1` [Compound I-88, 5-Cyano-N2-{3-[1-N-isopropyl-(tetrazol-5-yl)]}phenyl-N4-(1,2,2,6,6-pentamethylpiperidin-4-yl)-2,4-pyrimidinediamine], the IC50 was < 250 nM.
For the molecule `COc1ccc(Nc2ncc(F)c(NC3CC(C)(C)NC(C)(C)C3)n2)cc1-n1c(C)ccc1C` [Compound I-93, N2-[3-(2,5-Dimethyl-pyrrol-1-yl)-4-methoxy]phenyl-5-fluoro-N4-(2,2,6,6-tetramethylpiperidin-4-yl)-2,4-pyrimidinediamine], the IC50 is < 250 nM.
For `CN1C(C)(C)CC(Nc2nc(Nc3cccc(-n4nnnc4SCC(F)(F)F)c3)ncc2C#N)CC1(C)C` [Compound I-78, 5-cyano-N4-(1,2,2,6,6-pentamethylpiperidin-4-yl)-N2-{3-[5-(2,2,2-trifluoroethyl)thio]-1H-tetrazol-1-yl}phenyl-2,4-pyrimidinediamine], the half-maximal inhibitory concentration (IC50) is < 250 nM.
As for `CN1C(C)(C)CC(Nc2nc(Nc3cccc(-c4nnnn4C4CC4)c3)ncc2C#N)CC1(C)C` [Compound I-94, 5-Cyano-N2-{3-[1-N-cyclopropyl-(tetrazol-5-yl)]}phenyl-N4-(1,2,2,6,6-pentamethylpiperidin-4-yl)-2,4-pyrimidinediamine], the IC50 was < 250 nM.
For the molecule “N2-(3,5-Dimethoxyphenyl)-5-fluoro-N4-(1-N-oxide-2,2,6,6-pentamethylpiperidin-4-yl)-2,4-pyrimidinediamine [Compound I-111]”, the 50% inhibitory concentration (IC50) was > 1000 nM.
The same measure, in the same setting: for `CN1C(C)(C)CC(Nc2nc(Nc3cccc(-n4nnnc4SCC(F)(F)F)c3)ncc2C(N)=O)CC1(C)C` [Compound I-71, 5-aminocarbonyl-N4-(1,2,2,6,6-pentamethylpiperidin-4-yl)-N2-{3-[5-(2,2,2-trifluoroethyl)thio]-1H-tetrazol-1-yl}phenyl-2,4-pyrimidinediamine] the value was 250 to 500 nM.

The term IC50 denotes the concentration at which inhibition is half-maximal.
